Results reported in paper PMC10974507, “Design, Synthesis, Biological Evaluation and Molecular Docking of Novel F-18-Labeled Focal Adhesion Kinase Inhibitors as Potential Tumor Radiotracers” (Molecules, 2024).
Each block holds one compound with its values, some of them ahead of it.

Legend:
[1] = biological target: FAK (Homo sapiens, UniProt Q05397); test: FAK inhibitory assay (homogeneous time-resolved fluorescence kinase assay); assay type: biochemical; details: in vitro enzyme activity against FAK
Description: The inhibitory activities of the 7a–7c against FAK were tested using a homogeneous time-resolved fluorescence methodology-based kinase assay.
(§1) The FAK kinase inhibition test and the partition coefficient test were conducted according to a previously reported method.

[2] = system: mice bearing S-180 tumors; test: Biodistribution in S-180 tumor-bearing mice; assay type: in vivo, Kunming mice; details: for Biodistribution, Tumor (tumor uptake): S-180 tumor; for Biodistribution, Tumor (tumor uptake) / Biodistribution, Blood / Biodistribution, Bone / Biodistribution, Brine / Biodistribution, Heart / Biodistribution, Kidney / Biodistribution, Large intestine / Biodistribution, Liver / Biodistribution, Lung / Biodistribution, Muscle / Biodistribution, Small intestine / Biodistribution, Spleen / Biodistribution, Stomach: mean ± SD, n = 3
Description: Kunming mice (female, 18−22 g) and S180 ascites mice were purchased from Beijing Xinglong Animal Technology Co., Ltd., Beijing, China and Beijing Vital River Animal Technology Co., Ltd., Beijing, China, respectively. All the mice-concerned experiments were conducted in strict accordance with the “Guidelines for Humane Treatment of Laboratory Animals”, and the whole process was approved by the Animal Protection Committee of Beijing Normal University (Approval Code: BNUCC-EAW-2023-16; Approval date: 14 June 2023). The specific experimental operations were in accordance with those methods described previously.

[3] = Octanol/water partition coefficient determination; assay type: physicochemical; details: pH 7.4, read-out: logD7.4
Description: The partition coefficients of the radiotracers [^18F]7a and [^18F]7c were determined to evaluate the octanol/water partition properties.
as §1

[4] = 30 min after intravenous injection
[5] = 60 min after intravenous injection
[6] = 120 min after intravenous injection

Chain of FAK (Q05397 whole entry, species assumed): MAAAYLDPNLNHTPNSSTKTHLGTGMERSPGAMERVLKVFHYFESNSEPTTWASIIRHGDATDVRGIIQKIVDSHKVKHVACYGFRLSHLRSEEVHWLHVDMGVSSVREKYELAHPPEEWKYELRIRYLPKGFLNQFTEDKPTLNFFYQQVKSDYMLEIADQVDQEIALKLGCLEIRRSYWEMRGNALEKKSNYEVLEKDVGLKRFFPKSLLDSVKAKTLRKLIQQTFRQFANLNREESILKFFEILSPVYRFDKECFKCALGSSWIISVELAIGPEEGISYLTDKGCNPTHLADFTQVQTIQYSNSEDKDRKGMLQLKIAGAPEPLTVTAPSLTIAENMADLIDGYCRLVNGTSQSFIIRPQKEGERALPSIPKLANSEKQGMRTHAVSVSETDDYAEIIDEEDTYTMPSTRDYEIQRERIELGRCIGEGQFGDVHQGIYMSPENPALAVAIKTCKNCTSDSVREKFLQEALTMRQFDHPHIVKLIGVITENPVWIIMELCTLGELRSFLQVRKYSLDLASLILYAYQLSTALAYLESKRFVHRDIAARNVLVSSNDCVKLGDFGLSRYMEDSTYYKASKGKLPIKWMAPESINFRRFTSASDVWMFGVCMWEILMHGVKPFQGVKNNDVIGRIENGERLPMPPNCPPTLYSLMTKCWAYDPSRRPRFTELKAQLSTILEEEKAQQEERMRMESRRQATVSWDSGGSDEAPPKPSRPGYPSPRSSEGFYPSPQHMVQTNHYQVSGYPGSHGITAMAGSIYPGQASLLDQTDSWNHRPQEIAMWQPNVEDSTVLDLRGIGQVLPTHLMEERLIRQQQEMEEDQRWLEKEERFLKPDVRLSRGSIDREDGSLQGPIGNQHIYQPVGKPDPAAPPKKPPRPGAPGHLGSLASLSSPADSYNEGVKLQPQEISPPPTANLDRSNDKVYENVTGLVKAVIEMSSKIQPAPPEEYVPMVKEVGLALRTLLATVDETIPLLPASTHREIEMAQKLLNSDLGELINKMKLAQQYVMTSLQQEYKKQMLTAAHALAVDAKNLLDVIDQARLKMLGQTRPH

- IC50 [1]: 0.00559 µM
Compound: CNC(=O)c1cc(N2CCS(=O)(=O)CC2)ccc1Nc1nc(Nc2ccc(OCCOCCOCCF)cc2)ncc1Br [Compound 7a, 2-((5-bromo-2-((4-(2-(2-(2-fluoroethoxy)ethoxy)ethoxy)phenyl)amino)pyrimidin-4-yl)amino)-5-(1,1-dioxidothiomorpholino)-N-methylbenzamide]

- IC50 [1]: 0.0246 µM
Compound: CNC(=O)c1cc(N2CCS(=O)(=O)CC2)ccc1Nc1nc(Nc2ccc(OCCOCCOCCF)c(C(=O)N3CCN(C(C)=O)CC3)c2)ncc1Br [Compound 7b, 2-((2-((3-(4-acetylpiperazine-1-carbonyl)-4-(2-(2-(2-fluoroethoxy)ethoxy)ethoxy)phenyl)amino)-5-bromopyrimidin-4-yl)amino)-5-(1,1-dioxidothiomorpholino)-N-methylbenzamide]

- IC50 [1]: 0.00127 µM
- Biodistribution, Tumor (tumor uptake) [2, 4]: 6.58 ± 0.46 % ID/g
Compound: CNC(=O)c1cc(N2CCS(=O)(=O)CC2)ccc1Nc1nc(Nc2ccc(OCCOCCOCCF)c(-c3cnn(C)c3)c2)ncc1Br [Compound 7c, 2-((5-bromo-2-((4-(2-(2-(2-fluoroethoxy)ethoxy)ethoxy)-3-(1-methyl-1H-pyrazol-4-yl)phenyl)amino)pyrimidin-4-yl)amino)-5-(1,1-dioxidothiomorpholino)-N-methylbenzamide]

- IC50 [1]: 1.97 µM
Compound: CNC(=O)c1cc(N2CCN(C(C)=O)CC2)ccc1Nc1nc(Nc2ccc(OCCOCCOCCF)c(C(=O)N3CCOCC3)c2)ncc1Br [Compound 7d, 5-(4-acetylpiperazin-1-yl)-2-((5-bromo-2-((4-(2-(2-(2-fluoroethoxy)ethoxy)ethoxy)-3-(morpholine-4-carbonyl)phenyl)amino)pyrimidin-4-yl)amino)-N-methylbenzamide]

- IC50 [1]: 0.643 µM
Compound: CNC(=O)c1cc(N2CCN(C(C)=O)CC2)ccc1Nc1nc(Nc2ccc(OCCOCCOCCF)c(-c3cnn(C)c3)c2)ncc1Br [Compound 7e, 5-(4-acetylpiperazin-1-yl)-2-((5-bromo-2-((4-(2-(2-(2-fluoroethoxy)ethoxy)ethoxy)-3-(1-methyl-1H-pyrazol-4-yl)phenyl)amino)pyrimidin-4-yl)amino)-N-methylbenzamide]

- IC50 [1]: 0.01 µM
Compound: CNC(=O)c1cc(N2CCOCC2)ccc1Nc1nc(Nc2ccc(OCCOCCOCCF)c(C(=O)N3CCN(C(C)=O)CC3)c2)ncc1Br [Compound 7f]

- IC50 [1]: 1.24 µM
Compound: CCN1CCN(c2ccc(Nc3nc(Nc4ccc(OCCOCCOCCF)c(-c5cnn(C)c5)c4)ncc3Br)c(C(=O)NC)c2)CC1 [Compound 7g, 2-((5-bromo-2-((4-(2-(2-(2-fluoroethoxy)ethoxy)ethoxy)-3-(1-methyl-1H-pyrazol-4-yl)phenyl)amino)pyrimidin-4-yl)amino)-5-(4-ethylpiperazin-1-yl)-N-methylbenzamide]

- logD [3]: 0.96
- Tumor/blood ratio [2, 4]: 1.34
- Tumor/muscle ratio [2, 4]: 0.80
- Biodistribution, Blood [2, 4]: 0.98 ± 0.26 % ID/g
- Biodistribution, Bone [2, 4]: 2.32 ± 0.45 % ID/g
- Biodistribution, Brine [2, 4]: 0.57 ± 0.08 % ID/g
- Biodistribution, Heart [2, 4]: 3.05 ± 0.29 % ID/g
- Biodistribution, Kidney [2, 4]: 3.02 ± 1.70 % ID/g
- Biodistribution, Large intestine [2, 4]: 1.46 ± 0.13 % ID/g
- Biodistribution, Liver [2, 4]: 23.49 ± 4.29 % ID/g
- Biodistribution, Lung [2, 4]: 33.55 ± 5.59 % ID/g
- Biodistribution, Muscle [2, 4]: 1.63 ± 0.34 % ID/g
- Biodistribution, Small intestine [2, 4]: 2.95 ± 0.17 % ID/g
- Biodistribution, Spleen [2, 4]: 5.43 ± 1.12 % ID/g
- Biodistribution, Stomach [2, 4]: 0.92 ± 0.28 % ID/g
- Tumor/blood ratio [2, 5]: 1.45
- Tumor/muscle ratio [2, 5]: 0.56
- Biodistribution, Blood [2, 5]: 0.96 ± 0.10 % ID/g
- Biodistribution, Bone [2, 5]: 2.96 ± 0.43 % ID/g
- Biodistribution, Brine [2, 5]: 1.08 ± 0.13 % ID/g
- Biodistribution, Heart [2, 5]: 1.12 ± 0.03 % ID/g
- Biodistribution, Kidney [2, 5]: 1.47 ± 0.18 % ID/g
- Biodistribution, Large intestine [2, 5]: 1.36 ± 0.36 % ID/g
- Biodistribution, Liver [2, 5]: 23.16 ± 2.65 % ID/g
- Biodistribution, Lung [2, 5]: 28.77 ± 5.72 % ID/g
- Biodistribution, Muscle [2, 5]: 2.50 ± 0.59 % ID/g
- Biodistribution, Small intestine [2, 5]: 1.58 ± 0.35 % ID/g
- Biodistribution, Spleen [2, 5]: 2.53 ± 0.21 % ID/g
- Biodistribution, Stomach [2, 5]: 0.80 ± 0.21 % ID/g
- Tumor/blood ratio [2, 6]: 0.89
- Tumor/muscle ratio [2, 6]: 4.30
- Biodistribution, Blood [2, 6]: 0.92 ± 0.15 % ID/g
- Biodistribution, Bone [2, 6]: 1.27 ± 0.42 % ID/g
- Biodistribution, Brine [2, 6]: 0.16 ± 0.01 % ID/g
- Biodistribution, Heart [2, 6]: 0.85 ± 0.09 % ID/g
- Biodistribution, Kidney [2, 6]: 1.16 ± 0.06 % ID/g
- Biodistribution, Large intestine [2, 6]: 4.5 ± 1.91 % ID/g
- Biodistribution, Liver [2, 6]: 8.86 ± 3.14 % ID/g
- Biodistribution, Lung [2, 6]: 11.63 ± 1.25 % ID/g
- Biodistribution, Muscle [2, 6]: 0.20 ± 0.03 % ID/g
- Biodistribution, Small intestine [2, 6]: 0.96 ± 0.29 % ID/g
- Biodistribution, Spleen [2, 6]: 5.58 ± 1.06 % ID/g
- Biodistribution, Stomach [2, 6]: 1.16 ± 0.40 % ID/g
- Biodistribution, Tumor (tumor uptake) [2, 4]: 1.31 ± 0.07 % ID/g
- Biodistribution, Tumor (tumor uptake) [2, 5]: 1.39 ± 0.30 % ID/g
- Biodistribution, Tumor (tumor uptake) [2, 6]: 0.86 ± 0.34 % ID/g
Compound: CNC(=O)c1cc(N2CCS(=O)(=O)CC2)ccc1Nc1nc(Nc2ccc(OCCOCCOCC[18F])cc2)ncc1Br [[^18F]7a]

- logD [3]: 0.74
- Tumor/blood ratio [2, 4]: 2.40
- Tumor/muscle ratio [2, 4]: 1.88
- Biodistribution, Blood [2, 4]: 2.74 ± 0.11 % ID/g
- Biodistribution, Bone [2, 4]: 4.12 ± 0.39 % ID/g
- Biodistribution, Brine [2, 4]: 2.81 ± 0.06 % ID/g
- Biodistribution, Heart [2, 4]: 3.46 ± 0.65 % ID/g
- Biodistribution, Kidney [2, 4]: 4.00 ± 0.25 % ID/g
- Biodistribution, Large intestine [2, 4]: 6.18 ± 0.60 % ID/g
- Biodistribution, Liver [2, 4]: 17.64 ± 4.45 % ID/g
- Biodistribution, Lung [2, 4]: 120.47 ± 15.08 % ID/g
- Biodistribution, Muscle [2, 4]: 3.50 ± 0.18 % ID/g
- Biodistribution, Small intestine [2, 4]: 13.02 ± 1.93 % ID/g
- Biodistribution, Spleen [2, 4]: 16.32 ± 1.26 % ID/g
- Biodistribution, Stomach [2, 4]: 5.81 ± 1.02 % ID/g
- Tumor/blood ratio [2, 5]: 1.71
- Tumor/muscle ratio [2, 5]: 2.09
- Biodistribution, Blood [2, 5]: 3.43 ± 0.04 % ID/g
- Biodistribution, Bone [2, 5]: 4.86 ± 0.30 % ID/g
- Biodistribution, Brine [2, 5]: 3.12 ± 0.66 % ID/g
- Biodistribution, Heart [2, 5]: 2.53 ± 0.56 % ID/g
- Biodistribution, Kidney [2, 5]: 3.82 ± 0.44 % ID/g
- Biodistribution, Large intestine [2, 5]: 4.47 ± 0.44 % ID/g
- Biodistribution, Liver [2, 5]: 19.21 ± 3.81 % ID/g
- Biodistribution, Lung [2, 5]: 128.13 ± 6.74 % ID/g
- Biodistribution, Muscle [2, 5]: 2.80 ± 0.49 % ID/g
- Biodistribution, Small intestine [2, 5]: 5.73 ± 0.82 % ID/g
- Biodistribution, Spleen [2, 5]: 8.48 ± 0.10 % ID/g
- Biodistribution, Stomach [2, 5]: 1.14 ± 0.16 % ID/g
- Tumor/blood ratio [2, 6]: 1.37
- Tumor/muscle ratio [2, 6]: 2.16
- Biodistribution, Blood [2, 6]: 3.79 ± 0.46 % ID/g
- Biodistribution, Bone [2, 6]: 10.70 ± 1.01 % ID/g
- Biodistribution, Brine [2, 6]: 2.01 ± 0.18 % ID/g
- Biodistribution, Heart [2, 6]: 3.12 ± 0.25 % ID/g
- Biodistribution, Kidney [2, 6]: 3.50 ± 0.37 % ID/g
- Biodistribution, Large intestine [2, 6]: 48.07 ± 9.85 % ID/g
- Biodistribution, Liver [2, 6]: 28.36 ± 5.74 % ID/g
- Biodistribution, Lung [2, 6]: 125.29 ± 16.25 % ID/g
- Biodistribution, Muscle [2, 6]: 2.04 ± 0.12 % ID/g
- Biodistribution, Small intestine [2, 6]: 7.49 ± 1.46 % ID/g
- Biodistribution, Spleen [2, 6]: 24.70 ± 4.31 % ID/g
- Biodistribution, Stomach [2, 6]: 3.32 ± 0.31 % ID/g
- Biodistribution, Tumor (tumor uptake) [2, 4]: 6.58 ± 0.46 % ID/g
- Biodistribution, Tumor (tumor uptake) [2, 5]: 5.85 ± 0.28 % ID/g
- Biodistribution, Tumor (tumor uptake) [2, 6]: 5.18 ± 0.68 % ID/g
Compound: CNC(=O)c1cc(N2CCS(=O)(=O)CC2)ccc1Nc1nc(Nc2ccc(OCCOCCOCC[18F])c(-c3cnn(C)c3)c2)ncc1Br [[^18F]7c]
